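All cell lines were grown in 96-well plates and treated with compound for 48 hours. GI50 = concentration required for 50% inhibition of growth.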 Calls of active or inactive are those of the source. No stated cut-off is given here; in the data, active = GI50 up to about 1.1 µM and inactive = higher.
Columns and labels:
Assay in all cases: NCI tumour cell line growth inhibition, 48 h
NCI-H23 = system: NCI-H23
HCT-116 = system: HCT-116
SR = system: SR
SNB-19 = system: SNB-19
UACC-62 = system: UACC-62
K562 = system: K562
TK-10 = system: TK-10
LOX IMVI = system: LOX IMVI
U-251 = system: U-251
MDA-N = system: MDA-N
PC-3 = system: PC-3
SNB-75 = system: SNB-75
786-0 = system: 786-0
SF-295 = system: SF-295
SF-268 = system: SF-268
RPMI-8226 = system: RPMI-8226
BT-549 = system: BT-549
DU-145 = system: DU-145
CAKI-1 = system: CAKI-1

| Compound | GI50 (NCI-H23) | GI50 (HCT-116) | GI50 (SR) | GI50 (SNB-19) | GI50 (UACC-62) | GI50 (K562) | GI50 (TK-10) | GI50 (LOX IMVI) | GI50 (U-251) | GI50 (MDA-N) | GI50 (PC-3) | GI50 (SNB-75) | GI50 (786-0) | GI50 (SF-295) | GI50 (SF-268) | GI50 (RPMI-8226) | GI50 (BT-549) | GI50 (DU-145) | GI50 (CAKI-1) |
| --- | --- | --- | --- | --- | --- | --- | --- | --- | --- | --- | --- | --- | --- | --- | --- | --- | --- | --- | --- |
| Cc1ccc(S(=O)(=O)N2CCC[C@@H]2C(=O)O[C@@H]2CCC3CC=CC32)cc1 (some centres undefined) | 35.1 µM (inactive) | 30.4 µM (inactive) | 11.6 µM (inactive) | 34.4 µM (inactive) | 27.9 µM (inactive) | 14 µM (inactive) | 42.5 µM (inactive) | 16.1 µM (inactive) | 34.3 µM (inactive) | 29.2 µM (inactive) | 21.4 µM (inactive) | 26.1 µM (inactive) | 19.9 µM (inactive) | 36.8 µM (inactive) | 15.1 µM (inactive) | 18.7 µM (inactive) | 18.9 µM (inactive) | 45.6 µM (inactive) | – |
| COc1ccc(-c2cc(-c3cc(OC)c(OC)c(OC)c3)cc(-c3cc4ccccc4oc3=O)n2)cc1 | 7.87 µM (inactive) | 4.48 µM (inactive) | 9.79 µM (inactive) | 10.2 µM (inactive) | 12.5 µM (inactive) | 30.1 µM (inactive) | 8.18 µM (inactive) | 12.7 µM (inactive) | 3.54 µM (inactive) | 11.6 µM (inactive) | 19.6 µM (inactive) | 2.51 µM (inactive) | 2.16 µM (inactive) | 4.99 µM (inactive) | 3.45 µM (inactive) | – | 8.79 µM (inactive) | 9.53 µM (inactive) | 4.86 µM (inactive) |
| c1ccc2nn(C3CCCCO3)nc2c1 (centres undefined) | > 100 µM (inactive) | > 100 µM (inactive) | > 100 µM (inactive) | > 100 µM (inactive) | > 100 µM (inactive) | > 100 µM (inactive) | > 100 µM (inactive) | – | > 100 µM (inactive) | > 100 µM (inactive) | > 100 µM (inactive) | > 100 µM (inactive) | > 100 µM (inactive) | > 100 µM (inactive) | > 100 µM (inactive) | – | > 100 µM (inactive) | > 100 µM (inactive) | > 100 µM (inactive) |
| O=C1C=C(N2CCN(c3ncccn3)CC2)C(=O)c2c(O)ccc(O)c21 | > 100 µM (inactive) | 73.1 µM (inactive) | > 100 µM (inactive) | > 100 µM (inactive) | 16.2 µM (inactive) | > 100 µM (inactive) | > 100 µM (inactive) | > 100 µM (inactive) | > 100 µM (inactive) | 14.5 µM (inactive) | > 100 µM (inactive) | – | 53 µM (inactive) | > 100 µM (inactive) | > 100 µM (inactive) | – | > 100 µM (inactive) | > 100 µM (inactive) | > 100 µM (inactive) |
| CN(C)CCCNc1ccc([N+](=O)[O-])c2nc3ccccc3c(N)c12 | 0.9 µM (active) | 0.124 µM (active) | 0.23 µM (active) | 0.635 µM (active) | 1.25 µM (inactive) | 0.312 µM (active) | 2.27 µM (inactive) | 0.36 µM (active) | 0.738 µM (active) | 0.458 µM (active) | 0.394 µM (active) | – | 0.385 µM (active) | 0.382 µM (active) | 0.839 µM (active) | 0.266 µM (active) | 1.48 µM (inactive) | 0.308 µM (active) | 2.67 µM (inactive) |
| COc1c(OC)c(OC)c(C(=O)/C=C/c2ccccc2)c(OC)c1OC | 11 µM (inactive) | 6.11 µM (inactive) | – | 12.4 µM (inactive) | 6.87 µM (inactive) | 4.17 µM (inactive) | 12.8 µM (inactive) | 10 µM (inactive) | 7.46 µM (inactive) | 5.51 µM (inactive) | 8.67 µM (inactive) | 8.91 µM (inactive) | 9.29 µM (inactive) | 12.4 µM (inactive) | 3.69 µM (inactive) | 3.6 µM (inactive) | 3.79 µM (inactive) | 3.54 µM (inactive) | 13.9 µM (inactive) |
| CN(C)c1ccc(/C=N/NC(=O)c2cnc3ccccc3c2)cc1 | > 100 µM (inactive) | > 100 µM (inactive) | – | 48 µM (inactive) | > 100 µM (inactive) | > 100 µM (inactive) | 26.3 µM (inactive) | > 100 µM (inactive) | 38.7 µM (inactive) | 4.71 µM (inactive) | > 100 µM (inactive) | 21.9 µM (inactive) | 78.5 µM (inactive) | 71.4 µM (inactive) | 18 µM (inactive) | > 100 µM (inactive) | 94 µM (inactive) | 59.3 µM (inactive) | > 100 µM (inactive) |
| CN1CCN(/C(N)=C(\C#N)C(=O)Nc2ccccc2)CC1 | > 100 µM (inactive) | > 100 µM (inactive) | > 100 µM (inactive) | > 100 µM (inactive) | > 100 µM (inactive) | > 100 µM (inactive) | – | > 100 µM (inactive) | > 100 µM (inactive) | > 100 µM (inactive) | > 100 µM (inactive) | > 100 µM (inactive) | > 100 µM (inactive) | > 100 µM (inactive) | – | > 100 µM (inactive) | > 100 µM (inactive) | > 100 µM (inactive) | > 100 µM (inactive) |
| CC1OC2(CC(OCc3ccccc3)C1OCc1ccccc1)OCCO2 (centres undefined) | 35 µM (inactive) | 45.9 µM (inactive) | 21.1 µM (inactive) | 44.3 µM (inactive) | 56.9 µM (inactive) | 77.8 µM (inactive) | > 100 µM (inactive) | 33.6 µM (inactive) | 44.5 µM (inactive) | 55.1 µM (inactive) | 59.8 µM (inactive) | – | 61.5 µM (inactive) | 51.1 µM (inactive) | 60.1 µM (inactive) | 35.2 µM (inactive) | 59 µM (inactive) | 88.5 µM (inactive) | 63.1 µM (inactive) |
| COC(=O)C1CCC(=O)N1C(c1ccccc1)c1cc(OC)c(OC)c(OC)c1 (centres undefined) | 62.4 µM (inactive) | 50 µM (inactive) | 50.9 µM (inactive) | 76.4 µM (inactive) | 60.5 µM (inactive) | 21.8 µM (inactive) | > 100 µM (inactive) | 56.2 µM (inactive) | 80.4 µM (inactive) | 21.8 µM (inactive) | 51.3 µM (inactive) | – | > 100 µM (inactive) | 38.9 µM (inactive) | > 100 µM (inactive) | – | 92.7 µM (inactive) | > 100 µM (inactive) | 22.3 µM (inactive) |
| C[C@]12CC[C@@H]3c4ccc(O)cc4CC[C@H]3[C@@H]1CC[C@@H]2OP(=O)(O)O | > 100 µM (inactive) | > 100 µM (inactive) | – | > 100 µM (inactive) | > 100 µM (inactive) | > 100 µM (inactive) | > 100 µM (inactive) | > 100 µM (inactive) | > 100 µM (inactive) | > 100 µM (inactive) | > 100 µM (inactive) | > 100 µM (inactive) | > 100 µM (inactive) | > 100 µM (inactive) | > 100 µM (inactive) | > 100 µM (inactive) | > 100 µM (inactive) | > 100 µM (inactive) | > 100 µM (inactive) |

From ChEMBL document CHEMBL1201862, “PubChem BioAssay data set” (2004)
